This is an account of results in article PMC9772100 (ACS chemical biology, 2022).

One data set concerns the target T1, PfHGXPRT (Plasmodium falciparum, UniProt P20035).
T1 sequence (P20035 1-231): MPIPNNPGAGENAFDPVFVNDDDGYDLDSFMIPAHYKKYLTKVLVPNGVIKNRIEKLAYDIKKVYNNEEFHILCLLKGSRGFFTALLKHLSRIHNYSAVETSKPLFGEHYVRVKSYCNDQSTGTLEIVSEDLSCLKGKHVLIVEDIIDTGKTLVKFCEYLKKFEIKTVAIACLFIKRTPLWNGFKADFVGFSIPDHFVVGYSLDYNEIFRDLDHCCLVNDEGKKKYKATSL
Put plainly: PfHGXPRT steady-state kinetics. The format is biochemical.

Substrate in data set [1]: O=c1[nH]cnc2nc[nH]c12
The data set can be described thus: purified protein, by the assay type. The settings on record: other: unactivated enzyme; pH 7.4.

Like-named read-outs stand apart in the source and are kept apart here.

Turning to `O=P(O)(O)OC[C@H]1O[C@H](OP(=O)(O)OP(=O)(O)O)[C@H](O)[C@@H]1O` [PRPP, 5-phospho-α-D-ribosyl 1-pyrophosphate], the Michaelis-Menten constant (Km) was found to be 185 ± 14 µM at PfHGXPRT (read-out: Km, activated PfHGXPRT, substrate-activated enzyme) and 55 ± 11 µM at PfHGXPRT (read-out: Km, unactivated PfHGXPRT, unactivated enzyme).

B1: PfHGXPRT (Plasmodium falciparum FCR-3/Gambia) (protein)
chain: MPIPNNPGAGENAFDPVFVNDDDGYDLDSFMIPAHYKKYLTKVLVPNGVIKNRIEKLAYDIKKVYNNEEFHILCLLKGSRGFFTALLKHLSRIHNYSAVETSKPLFGEHYVRVKSYCNDQSTGTLEIVSEDLSCLKGKHVLIVEDIIDTGKTLVKFCEYLKKFEIKTVAIACLFIKRTPLWNGFKADFVGFSIPDHFVVGYSLDYNEIFRDLDHCCLVNDEGKKKYKATSL
As for B1, the Michaelis-Menten constant (Km) in data set [1] amounted to 2.7 ± 0.3 µM.
